pIC50: −log10 of the molar value.

This is an account of results in patent US9120804B2, “8-substituted 2-amino-[1,2,4] triazolo [1, 5-A] pyrazines as Syk tryrosine kinase inhibitors and GCN2 serin kinase inhibitors” (Merck Patent GmbH, priority 2012, dated 2015).

The assay addresses T1, SYK (Homo sapiens, UniProt P43405).
T1 construct: 2.5 nM SYK, 400 nM Biotin-Aha-Aha-KEDPDYEWPSAKK
Description: SYK flash plate assay (enzyme assay). Type of assay: biochemical. In outline: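 Radiometric Flashplate format: biotinylated peptide substrate (400 nM) and 33P-labelled ATP (10 μM) react with 2.5 nM enzyme for 1 hour at 30 °C in Hepes buffer, pH 7.5. After EDTA quench and washing, counts are taken; staurosporine defines non-specific signal, and IC50 values are derived.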
In turn, `CCC1(O)CCN(c2nccn3nc(Nc4ccc5c(c4)NC(=O)C5(C)C)nc23)CC1` [E44, 6-[8-(4-ethyl-4-hydroxy-piperidin-1-yl)-[1,2,4]triazolo[1,5-a]pyrazin-2-ylamino]-3,3-dimethyl-1,3-dihydro-indol-2-one] showed a pIC50 of over 7.00.
The same measure for `CC1CCCN1c1nccn2nc(Nc3ccc4c(c3)NC(=O)C4(C)C)nc12` (centres unmarked) [E42, 3,3-dimethyl-6-[8-(2-methyl-pyrrolidin-1-yl)-[1,2,4]triazolo[1,5-a]pyrazin-2-ylamino]-1,3-dihydro-indol-2-one]: over 7.00; for `CC1(C)C(=O)Nc2cc(Nc3nc4c(-c5cnc6ccccc6c5)nccn4n3)ccc21` [E115, 3,3-Dimethyl-6-(8-quinolin-3-yl-[1,2,4]triazolo[1,5-a]pyrazin-2-ylamino)-1,3-dihydro-indol-2-one]: over 7.00.
On to `CC1(C)C(=O)Nc2cc(Nc3nc4c(N5C[C@@H](CO)C[C@H]5c5ccccc5)nccn4n3)ccc21` (single isomer, unassigned) [E95, 6-[8-((cis1)-4-hydroxymethyl-2-phenyl-pyrrolidin-1-yl)-[1,2,4]triazolo[1,5-a]pyrazin-2-ylamino]-3,3-dimethyl-1,3-dihydro-indol-2-one], for which the pIC50 was over 7.00.
The same measure for `CC1(C)C(=O)Nc2cc(Nc3nc4c(N5CCCNCC5)nccn4n3)ccc21` [E68, 6-(8-[1,4]diazepan-1-yl-[1,2,4]triazolo[1,5-a]pyrazin-2-ylamino)-3,3-dimethyl-1,3-dihydro-indol-2-one]: over 7.00.
`CC1(C)C(=O)Nc2cc(Nc3nc4c(C5CCCC5)nccn4n3)ccc21` [E66, 6-(8-cyclopentyl-[1,2,4]triazolo[1,5-a]pyrazin-2-ylamino)-3,3-dimethyl-1,3-dihydro-indol-2-one]: the pIC50 was 5.52 to 6.52.
Under `COc1ccc2c(c1)CCN2c1nccn2nc(Nc3ccc4c(c3)NC(=O)C4(C)C)nc12` [E81, 6-[8-(5-methoxy-2,3-dihydro-indol-1-yl)-[1,2,4]triazolo[1,5-a]pyrazin-2-ylamino]-3,3-dimethyl-1,3-dihydro-indol-2-one] stands over 7.00.
The same measure for `CC1(C)C(=O)Nc2cc(Nc3nc4c(N5CCC6(CCNC6=O)CC5)nccn4n3)ccc21` [E13, 8-[2-(3,3-dimethyl-2-oxo-2,3-dihydro-1H-indol-6-ylamino)-[1,2,4]triazolo[1,5-a]pyrazin-8-yl]-2,8-diaza-spiro[4.5]decan-1-one]: over 7.00.
With `CC1(C)C(=O)Nc2cc(Nc3nc4c(N5CCC6(CCNC6=O)C5)nccn4n3)ccc21` (centres unmarked) [E19, 3,3-dimethyl-6-[8-(6-oxo-2,7-diaza-spiro[4.4]non-2-yl)-[1,2,4]triazolo[1,5-a]pyrazin-2-ylamino]-1,3-dihydro-indol-2-one], the pIC50 was 6.52 to 7.00.
Under `CC1(C)CNc2cc(Nc3nc4c(N5CCCCCC5)nccn4n3)ccc21` [E99, (8-azepan-1-yl-[1,2,4]triazolo[1,5-a]pyrazin-2-yl)-(3,3-dimethyl-2,3-dihydro-1H-indol-6-yl)-amine] stands over 7.00.
As for `CC1(C)C(=O)Nc2cc(Nc3nc4c(N5CCC6(CC5)NC(=O)NC6=O)nccn4n3)ccc21` [E28, 8-[2-(3,3-dimethyl-2-oxo-2,3-dihydro-1H-indol-6-ylamino)-[1,2,4]triazolo[1,5-a]pyrazin-8-yl]-1,3,8-triaza-spiro[4.5]decane-2,4-dione], the pIC50 was over 7.00.
In turn, `Cn1cc(-c2nccn3nc(Nc4ccc(C(C)(C)C)cc4)nc23)cn1` [C62, (4-tert-butyl-phenyl)-[8-(1-methyl-1H-pyrazol-4-yl)-[1,2,4]triazolo[1,5-a]pyrazin-2-yl]-amine] showed a pIC50 of 6.52 to 7.00.
The molecule `CC1(C)C(=O)Nc2cc(Nc3nc4c(N5CCc6ccc(C(N)=O)cc65)nccn4n3)ccc21` [E131, 1-[2-(3,3-Dimethyl-2-oxo-2,3-dihydro-1H-indol-6-ylamino)-[1,2,4]triazolo[1,5-a]pyrazin-8-yl]-2,3-dihydro-1H-indole-6-carboxylic acid amide] had a pIC50 of over 7.00.
The same measure for `CC1(C)C(=O)Nc2cc(Nc3nc4c(N5C[C@H](OC=O)C[C@@H]5c5ccccc5C(F)(F)F)nccn4n3)ccc21` [E85, formic acid (3R,5R)-1-[2-(3,3-dimethyl-2-oxo-2,3-dihydro-1H-indol-6-ylamino)-[1,2,4]triazolo[1,5-a]pyrazin-8-yl]-5-(2-trifluoromethyl-phenyl)-pyrrolidin-3-yl ester]: 4.30 to 5.52.
For the molecule `CC1(C)C(=O)Nc2cc(Nc3nc4c(NC5CN6CCC5CC6)nccn4n3)ccc21` (centres unmarked) [E135, 6-[8-(1-aza-bicyclo[2.2.2]oct-3-ylamino)-[1,2,4]triazolo[1,5-a]pyrazin-2-ylamino]-3,3-dimethyl-1,3-dihydro-indol-2-one], the pIC50 is over 7.00.
Regarding `CC1(C)C(=O)Nc2cc(Nc3nc4c(N5CCC6(CC5)CNC(=O)O6)nccn4n3)ccc21` [E27, 8-[2-(3,3-dimethyl-2-oxo-2,3-dihydro-1H-indol-6-ylamino)-[1,2,4]triazolo[1,5-a]pyrazin-8-yl]-1-oxa-3,8-diaza-spiro[4.5]decan-2-one], the pIC50 is over 7.00.
Under `CN(CCc1ccccn1)c1nccn2nc(Nc3ccc4c(c3)NC(=O)C4(C)C)nc12` [E90, 3,3-dimethyl-6-{8-[methyl-(2-pyridin-2-yl-ethyl)-amino]-[1,2,4]triazolo[1,5-a]pyrazin-2-ylamino}-1,3-dihydro-indol-2-one] stands 5.52 to 6.52; under `CC1(C)C(=O)Nc2cc(Nc3nc4c(N5C[C@H](O)C[C@@H]5c5cccc(F)c5)nccn4n3)ccc21` [E64, 6-{8-[(2R,4R)-2-(3-fluoro-phenyl)-4-hydroxy-pyrrolidin-1-yl]-[1,2,4]triazolo[1,5-a]pyrazin-2-ylamino}-3,3-dimethyl-1,3-dihydro-indol-2-one], 5.52 to 6.52; under `CC1CCC(C)N1c1nccn2nc(Nc3ccc4c(c3)NC(=O)C4(C)C)nc12` (centres unmarked) [E43, 6-[8-(2,5-dimethyl-pyrrolidin-1-yl)-[1,2,4]triazolo[1,5-a]pyrazin-2-ylamino]-3,3-dimethyl-1,3-dihydro-indol-2-one], over 7.00.
The same measure for `Cn1ncc2cc(-c3nccn4nc(Nc5ccc6c(c5)NC(=O)C6(C)C)nc34)ccc21` [E114]: over 7.00.
The same measure for `CC1(C)C(=O)Nc2cc(Nc3nc4c(NS(C)(=O)=O)nccn4n3)ccc21` [E104, N-[2-(3,3-dimethyl-2-oxo-2,3-dihydro-1H-indol-6-ylamino)-[1,2,4]triazolo[1,5-a]pyrazin-8-yl]-methanesulfonamide]: 4.30 to 5.52; for `CN1CCCC(Nc2nccn3nc(Nc4ccc5c(c4)NC(=O)C5(C)C)nc23)C1` (centres unmarked) [C107, 3,3-dimethyl-6-[8-(1-methyl-piperidin-3-ylamino)[1,2,4]triazolo[1,5-a]yrazin-2-ylamino]-1,3-dihydro-indol-2-one]: 5.52 to 6.52; for `CC1(C)C(=O)Nc2cc(Nc3nc4c(-c5cccc6[nH]ncc56)nccn4n3)ccc21` [C90, 6-[8-(1H-indazol-4-yl)-[1,2,4]triazolo[1,5-a]pyrazin-2-ylamino]-3,3-dimethyl-1,3-dihydro-indol-2-one]: over 7.00.
The molecule `CC1(C)C(=O)Nc2cc(Nc3nc4c(N5CCC6(CCNCC6)C5=O)nccn4n3)ccc21` [E141, 2-[2-(3,3-dimethyl-2-oxo-2,3-dihydro-1H-indol-6-ylamino)-[1,2,4]triazolo[1,5-a]pyrazin-8-yl]-2,8-diaza-spiro[4.5]decan-1-one] had a pIC50 of 6.52 to 7.00.
The same measure for `CC1(C)OC(=O)Nc2cc(Nc3nc4c(N5CCC6(CC5)CNC(=O)O6)nccn4n3)ccc21` [E47, 4,4-dimethyl-7-[8-(2-oxo-1-oxa-3,8-diaza-spiro[4.5]dec-8-yl)-[1,2,4]triazolo[1,5-a]pyrazin-2-ylamino]-1,4-dihydro-benzo[d][1,3]oxazin-2-one]: over 7.00.
The same measure for `CC(=O)N1CCC(N(C)c2nccn3nc(Nc4ccc5c(c4)NC(=O)C5(C)C)nc23)CC1` [E14, 6-{8-[(1-acetyl-piperidin-4-yl)-methyl-amino]-[1,2,4]triazolo[1,5-a]pyrazin-2-ylamino}-3,3-dimethyl-1,3-dihydro-indol-2-one]: 6.52 to 7.00; for `CN1CCC(C)(C)c2cc(-c3nccn4nc(Nc5ccc6c(c5)NC(=O)C6(C)C)nc34)ccc21` [E143, 3,3-dimethyl-6-[8-(1,4,4-trimethyl-1,2,3,4-tetrahydro-quinolin-6-yl)-[1,2,4]triazolo[1,5-a]pyrazin-2-ylamino]-1,3-dihydro-indol-2-one]: 6.52 to 7.00; for `CC1(C)C(=O)Nc2cc(Nc3nc4c(N5CC[C@]6(CNC(=O)C6)C5)nccn4n3)ccc21` [E52, 3,3-dimethyl-6-[8-((S)-8-oxo-2,7-diaza-spiro[4.4]non-2-yl)-[1,2,4]triazolo[1,5-a]pyrazin-2-ylamino]-1,3-dihydro-indol-2-one]: 6.52 to 7.00.
With `CCN(CC)c1nccn2nc(Nc3ccc4c(c3)NC(=O)C4(C)C)nc12` [E92, 6-(8-diethylamino-[1,2,4]triazolo[1,5-a]pyrazin-2-ylamino)-3,3-dimethyl-1,3-dihydro-indol-2-one], the pIC50 is over 7.00.
Under `CS(=O)(=O)Nc1ccc(-c2nccn3nc(Nc4ccc(N5CCOCC5)cc4)nc23)cc1` [C42, N-{4-[2-(4-morpholin-4-yl-phenylamino)-[1,2,4]triazolo[1,5-a]pyrazin-8-yl]-phenyl}-methanesulfonamide] stands 5.52 to 6.52.
Turning to `CC1(C)CCNc2cc(Nc3nc4c(N5CCC6(CC5)CNC(=O)C6)nccn4n3)ccc21` [E77, 8-[2-(4,4-dimethyl-1,2,3,4-tetrahydro-quinolin-7-ylamino)-[1,2,4]triazolo[1,5-a]pyrazin-8-yl]-2,8-diaza-spiro[4.5]decan-3-one], the pIC50 was over 7.00.
The molecule `CC1(C)C(=O)Nc2cc(Nc3nc4c(N5CCC6(CC5)CNC(=O)C6)nccn4n3)ccc21` [E63, 8-[2-(3,3-dimethyl-2-oxo-2,3-dihydro-1H-indol-6-ylamino)-[1,2,4]triazolo[1,5-a]pyrazin-8-yl]-2,8-diaza-spiro[4.5]decan-3-one] gave a pIC50 of over 7.00.
